According to US4721713A, “Process for inhibiting blood platelet aggregation and promoting vasodilation” (Toyo Jozo Kabushiki Kaisha, priority 1986, dated 1988):
Like-named read-outs stand apart in the source and are kept apart here.

How the values were obtained:
[1] = system: platelet aggregation in platelet-rich rabbit plasma; test: Inhibitory effect on blood platelet aggregation, effect in vitro (ADP-induced); assay type: cell-based; settings: for inhibition at 100 µM: Oryctolagus cuniculus, Platelet, 0.05 h, read-out: Inhibition Ratio on Platelet Aggregation (Mean ± S.E)
Protocol: An aggregating agent, adenosine-5'-diphosphate (final concentration 2.5 μM), was added thereto and the platelet aggregating potential was measured with an aggregometer.

[2] = system: blood flow in left hind leg; test: Vasodilating activity upon intra-arterial administration (perfused left hind leg); assay type: in vivo, Mongrel dogs; settings: for Vasodilating Activity (relative to blood flow increase by papaverine 30 μg as 100%): 100 μg, i.a., mean ± S.E. for 3 animals
Protocol: Mongrel dogs anesthetized with urethane (450 mg/kg iv) and α-chlora-lose (45 mg/kg iv) after pretreatment with morphine (1.5 mg/kg, sc) were secured in a supine position. Blood from the right femoral artery was introduced into the left femoral artery through a circulation pump and the left hind leg was perfused under constant pressure by connection with a Starling's resistance in an exosomatic circulatory system. The prefusion pressure was set slightly higher than the mean blood pressure of each animal and the change in blood flow upon intra-arterial injection of the test compound was determined. The results, showing specific activity as compared with a value indicating the degree of increase in the amount of blood flow by papaverine (30 μg, iv) as 100%, are shown in Table 4.

[3] = system: number of platelets in the circulating blood; test: Effect in vivo: number of platelets in circulating blood after E. coli lipopolysaccharide; parameters: species or system Male Wistar rats; settings: for Number of Platelets, Exp. 1 / Number of Platelets, Exp. 2: ratio pre- and post-administration, LPS 5 mg/kg i.p., 3 hours
Protocol: Male Wistar rats, five animals in a group, were administered per orally the agents to be tested. After one hour, E. coli lipopolysaccharide (5 mg/kg) was injected intraperitoneally and 3 hours thereafter blood samples were collected and measured as to the number of platelets in the circulating blood to determine the ratio of platelets pre- and post-administration of the agents. The tests were repeated twice.

anoxia = test: Protective effect against anoxia; assay type: in vivo, Male ddY strain mice; settings: for Survival Time: 200 mg/kg p.o., mean ± S.E.
Protocol: The present compound and a control were administered per orally 30 or 60 mins. before the test.

Acute toxicity in mice = assay type: in vivo; settings: mouse, in vivo
mice = test: Acute toxicity in mice; assay type: in vivo; settings: intravenous 100 mg/kg
rats = test: Acute toxicity in rats; assay type: in vivo, male Wister rats
Acute toxicity in rats = assay type: in vivo, male Wister rats; settings: rat, in vivo; oral, rats
[4] = system: L5178Y murine lymphoblastoma; test: Cytotoxicity; assay type: cell-based; settings: 37° C. for 18 hours
Protocol: To L5178Y murine lymphoblastoma (2×10^4 cells/ml) suspended in a medium (27 ml) comprising Fischer's culture medium including 10% bovine serum, were added test agents in solution (0.3 ml) diluted with a culture medium and the material was incubated at 37° C. for 18 hours. Growth of the cells was determined by color change. Growth inhibition of the cells was not observed at any concentration of 20 μg/ml and 100 μg/ml of the compound of the present invention, and so no cytotoxicity was observed.

PAF-induced shock = test: Effect against platelet activated factor (PAF)-induced shock; assay type: in vivo, Male ddY strain mice; settings: 100 mg/kg p.o.
Protocol: Male ddY strain mice, male, 10 animals in a group, were administered per orally the compound of the present invention (100 mg/kg), and after one hour PAF (60 μg/kg) was administered intravenously to determine the ratio of mortality.

[5] = system: experimental disseminated intravascular coagulation; test: Effect on disseminated intravascular coagulation (E. coli lipopolysaccharide infusion); assay type: in vivo, Male Wistar rats; settings: 100 mg/kg p.o.
Protocol: Male Wistar rats, seven animals in a group, were administered per orally the agents (100 mg/kg) to be tested. After one hour, E. coli lipopolysaccharide (50 mg/kg) was continuously injected intravenously for four hours. A control group was given physiological saline intravenously under the same conditions.
Blood was collected immediately after finishing the injection to measure the number of platelets, the activated partial thromboplastin time, the prothrombin time and the amount of fibrinogen. In the control group, in which E. coli lipopolysaccharide was injected, a marked decrease in the number of platelets and the amount of fibrinogen and a marked prolongation of the activated partial thromboplastin time and the prothrombin time are observed.

[6] = system: microorganism strains TA100, TA1535, WP2 uvr A, TA98, TA1537 and TA1538; test: Mutagenicity, backward mutation test; assay type: cell-based
Protocol: A backward mutation test using microorganism strains TA100, TA1535, WP2 uvr A, TA98, TA1537 and TA1538 was performed by the method according to Iyer et al. [N. Y. Iyer and W. Szybalski, Appl. Microbiol., 6: 37 (1958)]. The test agents were tenfold diluted in six stages of concentration of 0.00333-333 μg/disc.

[7] = system: arterial blood flow (vertebral, coronary, renal, femoral); test: Vasodilating activity upon intravenous administration (regional arterial blood flow); assay type: in vivo, mongrel dog; settings: FIG. 1
Text: A cuff-type probe for measuring blood flow was applied to the left vertebral artery, the left anterior descending coronary artery, the left renal artery and the right femoral artery of a mongrel dog anesthetized in the same way as hereinabove and the blood flow was continuously measured. The blood pressure was monitored by a pressure transducer connected to a cannula inserted into the left femoral artery, and the heart rate was monitored through a tachometer by triggering the R-wave of lead II of an electrocardiograph. The agent to be tested was injected into the left venous cephalica. The results are shown in FIG. 1, in which the ordinate indicates the response ratio and the abscissa indicates dosages by intravenous administration, and in which

[8] = final concentration 100 μM, ADP 2.5 μM, 37° C. for 3 minutes
[9] = final concentration 100 μM, ADP 2.5 μM
[10] = PAF 60 μg/kg i.v. after one hour
[11] = LPS 50 mg/kg i.v. over four hours

For Cc1nc(C)c(C)nc1C [Tetramethylpyrazine, tetramethylpyrazine], the inhibition at 100 µM [1, 8] was 3 ± 1.6%, the “Inhibitory effect on blood platelet aggregation (in words)” value (“Inhibitory effect” below) [1, 9] was “no inhibitory effect” and the “Vasodilating Activity (relative to blood flow increase by papaverine 30 μg as 100%)” value [2] was 19.3 ± 0.9%.
For Clc1ccccc1CN1CCc2sccc2C1 [Ticlopidine, ticlopidine, reference compound], the inhibition at 100 µM [1, 8] was -1.2 ± 1.2%, the “Inhibitory effect” value [1, 9] was “no inhibitory effect” and the “Number of Platelets, Exp. 1” value ([3]; 200 mg/kg p.o.) was 57.9 ± 12.0%. The “Number of Platelets, Exp. 2” value ([3]; 200 mg/kg p.o.) was 63.4 ± 19.4%.
In the case of CC(=O)Oc1ccccc1C(=O)O [Acetyl salicylic acid, acetyl salicylic acid], the inhibition at 100 µM [1] is reported as -0.6 ± 0.6% and the “Inhibitory effect” value [1, 9] is reported as “no inhibitory effect”.
In the case of Cc1nc(O)c(C(C)C)nc1C.Cl [Present compound, 2-hydroxy-3-isopropyl-5,6-dimethylpyrazine hydrochloride], the inhibition at 100 µM [1, 8] is reported as 69.6 ± 5.4%, the “Inhibitory effect” value [1, 9] is reported as “distinct inhibitory effect” and the “Survival Time” value (anoxia; pretreatment time 30 min.) is reported as 42.7 ± 1.6 s. The “Survival Time” value (anoxia; pretreatment time 60 min.) was 48.1 ± 1.9 s, the “Survival time (in words)” value (anoxia; pretreatment per orally) was “Significant prolongation of survival time” and the LD50 (Acute toxicity in mice; intravenous, read-out: LD50) was roughly 200 mg/kg. The LD50 (Acute toxicity in mice; oral, read-out: LD50 oral) was 555 mg/kg, the Death (mice) was “no death was observed” and the Death (rats; intravenous 50 mg/kg, rats) was “no death was observed”. The “Dose attainable due to the solubility of the compound” value (rats; rat, in vivo, iv) was “up to 50 mg/kg”, the LD50 (Acute toxicity in rats) was 903 mg/kg and the “Growth inhibition of the cells” value ([4]; 20 μg/ml) was “not observed”. The “Growth inhibition of the cells” value ([4]; 100 μg/ml) was “not observed”, the “Action against PAF-induced shock (in words)” value (PAF-induced shock) was “protective action” and the “Mortality, Experiment 1” value (PAF-induced shock; [10]) was 1/10. The “Mortality, Experiment 2” value (PAF-induced shock; [10]) was 3/10, the “Activated Partial Thromboplastin Time” value [5, 11] was 48.5 ± 7.4 s and the Fibrinogen [5, 11] was 77.2 ± 13.1 mg/dL. The “Platelet Number” value [5, 11] was 177 ± 51 × 10^3 /mm^3, the “Prothrombin Time” value [5, 11] was 14.3 ± 1.4 s and the “Effect against all the factors tested (in words)” value ([5]; experimental disseminated intravascular coagulation) was “significant effect against all the factors tested”. The Mutagenesis ([6]; 0.00333-333 μg/disc, any concentration) was “No mutagenesis was found”, the “Mutagenesis under metabolic activation” value ([6]; metabolic activation using an S-9 mixture) was “no mutagenesis was observed” and the “Coronary arterial blood flow (in words)” value [7] was “increases blood flow in the vertebral artery, in the coronary artery”. The “Femoral arterial blood flow (in words)” value [7] was “increases blood flow in the vertebral artery, in the coronary artery and in the femoral artery”, the “Renal arterial blood flow (in words)” value [7] was “does not affect the renal arterial blood flow” and the “Selectivity for vertebral and coronary arterial blood flow (in words)” value [7] was “Selective effects on the vertebral arterial blood flow and the coronary arterial blood flow”. For the same molecule, the “Vertebral arterial blood flow (in words)” value [7] was “increases blood flow in the vertebral artery”, the “Vasodilating Activity (relative to blood flow increase by papaverine 30 μg as 100%)” value [2] was 100.7 ± 19.1% and the “Vasodilating activity compared with tetramethylpyrazine (in words)” value ([2]; intra-arterial) was “markedly stronger vasodilating activity than that of the control drug, tetramethylpyrazine”. For the same molecule, the “Number of Platelets, Exp. 1” value ([3]; 100 mg/kg p.o.) was 58.2 ± 7.8%, the “Number of Platelets, Exp. 2” value ([3]; 100 mg/kg p.o.) was 55.9 ± 14.0% and the “Effect on decrease of platelet number (in words)” value ([3]; 100 mg/kg per orally, compared with ticlopidine 200 mg/kg oral) was “inhibits the decrease of platelet number, which is comparable to an oral dose of 200 mg/kg ticlopidine”.
